Experimental findings from PubChem BioAssay (NCI) are described below.

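Exposure lasted 48 hours, with cells grown in 96-well plates and compounds tested at five concentrations. Here, GI50 denotes the concentration required for 50% inhibition of growth. TGI: total growth inhibition.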

In one assay the test system is SW-620 colon. Nature of the assay: DTP human tumour cell line panel, 48 h.
What is called TGI is the concentration at which net growth stops. Regarding `CC1=NS(=O)(=O)c2ccccc2N1`, the total growth inhibition concentration (TGI) is greater than 100 µM.
Still for that read-out and setting: for `COP(=O)(/C=C/c1cc(C(=O)OCc2ccccc2)n(S(=O)(=O)c2ccccc2)c1)OC` the value was greater than 100 µM.
On the same count and under the same terms, the same measure for `CCN(CCCN(CC)C(=O)Nc1c(C)cccc1C)C(=O)Nc1c(C)cccc1C`: greater than 100 µM; for `O=C(O)CCC(=O)OC1N=C(c2ccccc2Cl)c2cc([N+](=O)[O-])ccc2NC1=O` (configuration not stated): greater than 100 µM.
The same measure, in the same setting: for `COc1ccc(C2=N/C(=C\c3ccccc3)C(=O)O2)cc1` the value was greater than 100 µM.
With `CSc1nsc(-c2ccccc2)[s+]1`, the total growth inhibition concentration (TGI) was greater than 100 µM.
The same measure, in the same setting: for `Oc1ccc([I+]c2ccccc2)cc1O` the value was 37.1 µM.
Still for that read-out and setting: for `NC1=NCC(CN2CCOCC2)O1` (configuration not stated) the value was greater than 100 µM; for `COc1cccc2c(=O)oc(-c3ccc(C(C)(C)C)cc3)nc12`, greater than 100 µM.

The next assay relates to SR leukemia. Put plainly: DTP human tumour cell line panel, 48 h.
`COc1ccc2c(c1)/C(=C\c1c(Cl)nc3sc(C)cn13)C(=O)N2` registered a TGI of 15.6 µM.
`O=C(/C=C/c1ccc2c(c1)OCO2)CC(=O)C(=O)c1c[nH]c2ccccc12` had a TGI greater than 100 µM.
The same measure, in the same setting: for `O=C1NCCN1/N=C/c1c(Cl)n(-c2ccccc2)c2ccccc12` the value was 85.7 µM; for `CCCCCCOc1ccc(C(=O)NOC)cc1`, greater than 100 µM.
The term GI50 denotes the concentration at which growth is held to half of that of the control. With `CO[C@H]1/C=C(/C)CCC[C@H](C)[C@H](O)[C@@H](C)C(=O)C(C)(C)[C@@H](O)CC(=O)O[C@@H]1/C(C)=C/c1csc(C)n1`, the GI50 was 0.0151 µM and the TGI is greater than 58.2 µM.
As to `CC1CCC(C(=O)O)(C(Br)C(=O)O)CC1` (configuration not stated), the TGI was greater than 100 µM.
In turn, `CCOC(=O)Cn1c(=O)c2nc(SC)sc2n(-c2ccccc2)c1=O` gave a TGI greater than 100 µM.
On to `O=[N+]([O-])C(/C=C(\Cl)n1nnc2ccccc21)=C(/Cl)n1nnc2ccccc21`, for which the TGI was greater than 100 µM.
Take `CS(=O)(=O)OCC(CCl)(CCl)CCl`: the TGI was greater than 100 µM.
Still for that read-out and setting: the same measure for `COc1ccc2c(C)cc(=O)oc2c1OC`: greater than 100 µM; for `OCCc1ccsc1-c1sc(-c2cc(CCO)c(-c3sccc3CCO)s2)cc1CCO`: greater than 100 µM; for `Cc1cc2c3c(nc4ccccc42)C(=O)c2ccccc2-c3n1`: 37.2 µM.
Still for that read-out and setting: for `CCOC(=O)c1c(C)nc2c3ccccc3c(C#N)c(C)n12` the value was greater than 100 µM.
The same measure, in the same setting: the same measure for `O=c1[nH]c(Nc2nc3ccccc3[nH]2)nc(O)c1-c1ccccc1`: greater than 100 µM; for `CC1=NS(=O)(=O)c2ccccc2N1`: greater than 100 µM; for `COc1ccc(C2=N/C(=C\c3ccccc3)C(=O)O2)cc1`: 57.5 µM.
The compound `CSc1nsc(-c2ccccc2)[s+]1` displayed a TGI greater than 100 µM.
With `Oc1ccc([I+]c2ccccc2)cc1O`, the TGI is greater than 100 µM.
Same read-out and setting: for `NC1=NCC(CN2CCOCC2)O1` (configuration not stated) the value was greater than 100 µM; for `COc1cccc2c(=O)oc(-c3ccc(C(C)(C)C)cc3)nc12`, 63.1 µM.

For another assay, the system named is T-47D breast. Nature of the assay: DTP human tumour cell line panel, 48 h.
Consider `COc1ccc2c(c1)/C(=C\c1c(Cl)nc3sc(C)cn13)C(=O)N2`, for which the concentration for total growth inhibition (TGI) came to 14.6 µM.
The same measure, in the same setting: the same measure for `O=C1c2ccccc2-c2c1c(-c1ccc(F)cc1)nc1ccc3ccccc3c21`: greater than 100 µM.
With `O=C(/C=C/c1ccc2c(c1)OCO2)CC(=O)C(=O)c1c[nH]c2ccccc12`, the total growth inhibition concentration (TGI) turned out to be 62.1 µM.
For `O=c1[nH]c(=O)n(C2OC(CO)C(O)C2O)c2nc(-c3ccc(-c4ccccc4)cc3)cnc12` (configuration not stated), the TGI was greater than 100 µM.
For `O=C1NCCN1/N=C/c1c(Cl)n(-c2ccccc2)c2ccccc12`, the TGI was 41 µM.
Take `CO[C@H]1/C=C(/C)CCC[C@H](C)[C@H](O)[C@@H](C)C(=O)C(C)(C)[C@@H](O)CC(=O)O[C@@H]1/C(C)=C/c1csc(C)n1`: the GI50 is 0.0668 µM and the concentration for total growth inhibition (TGI) is greater than 100 µM.
Turning to `CC(=O)Nc1nc(C#N)[nH]c1C#N`, the TGI is greater than 100 µM.
`COc1cc(NS(C)(=O)=O)ccc1Nc1cc(C)[nH]c2ccc3nccc3c12` gave a total growth inhibition concentration (TGI) greater than 100 µM.
As to `COc1ccc(-c2nc(SCC(=O)N/N=C/c3ccc(N(C)C)cc3)[nH]c2-c2ccc(OC)cc2)cc1`, the concentration for total growth inhibition (TGI) is greater than 100 µM.
On the same count and under the same terms, for `CC1=C[C@@H]2Cc3nc4cc(Cl)ccc4c(N)c3[C@H](C1)C2` the value was 37.4 µM; for `O=[N+]([O-])C(/C=C(\Cl)n1nnc2ccccc21)=C(/Cl)n1nnc2ccccc21`, greater than 100 µM.
`CS(=O)(=O)OCC(CCl)(CCl)CCl` showed a TGI greater than 100 µM.
The same measure, in the same setting: for `N#Cc1c(-c2ccccc2)/c(=C\Nc2ccc(F)cc2)c(=O)n2c1nc1ccccc12` the value was greater than 100 µM; for `Cc1cc2c3c(nc4ccccc42)C(=O)c2ccccc2-c3n1`, greater than 100 µM.
On the same count and under the same terms, for `CCOC(=O)c1cn2c(nc1=O)N[C@H]1CCCC[C@@H]12` the value was greater than 100 µM; for `COP(=O)(/C=C/c1cc(C(=O)OCc2ccccc2)n(S(=O)(=O)c2ccccc2)c1)OC`, greater than 100 µM.
The same measure, in the same setting: the same measure for `CCN(CCCN(CC)C(=O)Nc1c(C)cccc1C)C(=O)Nc1c(C)cccc1C`: greater than 100 µM.
Compound `O=C(O)CCC(=O)OC1N=C(c2ccccc2Cl)c2cc([N+](=O)[O-])ccc2NC1=O` (configuration not stated) yielded a concentration for total growth inhibition (TGI) greater than 100 µM.
Same read-out and setting: for `NC1=NCC(CN2CCOCC2)O1` (configuration not stated) the value was greater than 100 µM; for `COc1cccc2c(=O)oc(-c3ccc(C(C)(C)C)cc3)nc12`, greater than 100 µM.

The test system of a further assay is NCI-H460 lung. Nature of the assay: DTP human tumour cell line panel, 48 h.
Turning to `COc1ccc2c(c1)/C(=C\c1c(Cl)nc3sc(C)cn13)C(=O)N2`, the TGI stood at 12.3 µM.
Same read-out and setting: the same measure for `O=C1c2ccccc2-c2c1c(-c1ccc(F)cc1)nc1ccc3ccccc3c21`: greater than 100 µM; for `O=C(/C=C/c1ccc2c(c1)OCO2)CC(=O)C(=O)c1c[nH]c2ccccc12`: greater than 100 µM; for `O=c1[nH]c(=O)n(C2OC(CO)C(O)C2O)c2nc(-c3ccc(-c4ccccc4)cc3)cnc12` (configuration not stated): greater than 100 µM.
The same measure, in the same setting: for `CCCCCCOc1ccc(C(=O)NOC)cc1` the value was greater than 100 µM.
As for `CO[C@H]1/C=C(/C)CCC[C@H](C)[C@H](O)[C@@H](C)C(=O)C(C)(C)[C@@H](O)CC(=O)O[C@@H]1/C(C)=C/c1csc(C)n1`, the 50% growth inhibitory concentration (GI50) is less than 0.01 µM and the concentration for total growth inhibition (TGI) was greater than 100 µM.
Regarding `CC(=O)Nc1nc(C#N)[nH]c1C#N`, the total growth inhibition concentration (TGI) is greater than 100 µM.
On the same count and under the same terms, the same measure for `CC1CCC(C(=O)O)(C(Br)C(=O)O)CC1` (configuration not stated): greater than 100 µM; for `COc1cc(NS(C)(=O)=O)ccc1Nc1cc(C)[nH]c2ccc3nccc3c12`: greater than 100 µM.
Still for that read-out and setting: for `CCOC(=O)Cn1c(=O)c2nc(SC)sc2n(-c2ccccc2)c1=O` the value was greater than 100 µM.
The same measure, in the same setting: the same measure for `COc1ccc(-c2nc(SCC(=O)N/N=C/c3ccc(N(C)C)cc3)[nH]c2-c2ccc(OC)cc2)cc1`: greater than 100 µM.
For the compound `CC1=C[C@@H]2Cc3nc4cc(Cl)ccc4c(N)c3[C@H](C1)C2`, the concentration for total growth inhibition (TGI) is 23.1 µM.
Same read-out and setting: the same measure for `O=[N+]([O-])C(/C=C(\Cl)n1nnc2ccccc21)=C(/Cl)n1nnc2ccccc21`: greater than 100 µM; for `c1c[nH]c(-c2ccc(-c3ccc[nH]3)c3nsnc23)c1`: greater than 100 µM.
The same measure, in the same setting: for `CS(=O)(=O)OCC(CCl)(CCl)CCl` the value was greater than 100 µM.
